Results on 10 compounds are retold here after patent US9040527B2, “Pyrimidinediamine kinase inhibitors” (Rigel Pharmaceuticals, Inc., priority 2008, dated 2015).

In experiment [1] the target is T1, PLK1 (Homo sapiens, UniProt P53350). The experiment can be described thus: In vitro PLK1 ELISA assay (biochemical). More on the design: purchased Cell Signalling 7728. The protocol:
(§1) Inhibition of PLK1 was measured by quantifying phosphorylation of PLK1 substrates using chemiluminescent and fluorogenic probes. The protocols for these assays are provided below.
In Vitro PLK1 ELISA Assay
1. Preparation of Assay Plates.
Costar 96-well black or white solid flat high binding plates (Fisher Scientific, Catalog No. 07-200-591) were coated with Neutravidin (Pierce, Catalog No. 31000) using the following protocol. A 0.01 mg/mL solution of Neutravidin in 1× Phosphate Buffered Saline (“PBS”, Cellgro/Mediatech, Catalog No. 21-040-CV) was added to each well (100 μL/well) and was incubated for 18-24 hours at 4° C. The plates were then washed with 1× Phosphate Buffer Saline—Tween (“PBST”, Calbiochem, Catalog No. 524653) buffer using a plate washer. The plates were treated with bovine serum albumin (“BSA”, Sigma, Catalog No. A7906) to block non-specific binding sites, by adding a 2% BSA solution in 1×PBST buffer to each well (100 μL/well) and incubating the plates for 1 hour at room temperature. The plates were then washed with 1×PBST buffer using a plate washer.
2. PLK1-Catalyzed Phosphorylation Reaction
An aqueous buffer solution A having the following composition was prepared:
20 mM HEPES (Cellgro/Mediatech, Catalog No. 25-060Ci), pH 7.2;
5 mM MgCl2 (Sigma, Catalog No. M2393);
2 mM MnCl2.4H2O (EM Biosciences, Catalog No. MX0185-2);
1 mM Dithiothreitol (“DTT”, Fluka, Catalog No. B4184).
Next, the substrate solution B was prepared by adding 2.6 μL of 10 mM ATP (Sigma, Catalog No. A7699) and 6.4 μL of the 1 mM PLK1 substrate, CHK2-derived peptide Biotin-SSLETVSTQELYSIP (custom synthesized at Anaspec) SEQ ID: No. 1, to 4691 μL of the buffer solution A. The concentration of the ATP in solution B is 5.44 μM (1.36×); the concentration of the PLK1 substrate in solution B is 1.36 μM (1.36×).
Compound solutions C of varying concentrations for each compound were prepared by dissolving each compound in dimethylsulfoxide (DMSO, Sigma, Catalog No. D2650) to varying concentrations, followed by adding 2 μL of each solution to 38 μL of the buffer solution A, thereby forming 10× compound solutions in 5% DMSO.
A PLK1 solution D was prepared by adding 8.4 μL of 100 μg/mL PLK1 (Cell Signalling, Catalog No. 7728) to 1392 μL of the buffer solution A, thereby forming 0.6 μg/mL (6×) PLK1 solution.
The aqueous 1.36× substrate solution B was added to each well (44 μL/well) resulting in binding of the substrate to the plate via biotin/neutravidin interaction. Then 10× compound solutions C for each tested compound at each tested concentration were added to each well (6 μL/well). Next, 6×PLK1 solution D was added to each well (10 μL/well).
The final concentrations of tested compounds in each well were 10 μM, 3.3 μM, 1.1 μM, 0.36 μM, 0.12 μM, 0.04 μM, 0.014 μM, and 0.005 μM.
The obtained reaction mixtures were incubated in the wells for 45 minutes at room temperature, allowing PLK1-catalyzed phosphorylation of the substrate to proceed. The plates were then washed with 1×PBST solution using a plate washer, such that the bound phosphorylated or unphosphorylated substrate remains attached to the wells upon washing.
The washed plates were developed by treating the plates with a primary antibody that is specific for the phosphorylated substrate, followed by treatment with a secondary antibody that is specific for the primary antibody, and that is capable of catalyzing a reaction that results in a chemiluminescent readout. The chemiluminescent readout was used to quantify the substrate phosphorylation, and, consequently, to determine IC50 values for PLK1 inhibition, and was measured using a luminometer (Perkin Elmer/Wallac plate reader). The plate development protocol is described below.
A mixed antibody solution E was prepared by adding 1 μL of the primary antibody, rabbit p-CHK2(T68) (Rockland, Catalog No. 401280), and 1 μL of the secondary antibody, HRP-goat anti-rabbit IgG (Jackson Immunoresearch Catalog No. 111-035-003) to 10000 μL of 0.1% BSA in 1×PBST buffer. […]
Background: In an ELISA, binding on a coated surface is turned into a signal by an enzyme label.

For experiment [2], the target named is T1, PLK1. Description: Cellular PLK1 assay in K562 cells overexpressing CDC25C. To be noted: nocodazole arrested, cdc25c p-Ser198 readout. More on the design: endogenous in cells; host or cells: K562 (human chronic myelogenous leukemia) overexpressing CDC25C, nocodazole-arrested. The experiment is classed as cell-based. On the procedure: as §1
1. Culturing of K562 Cells
Human chronic myelogenous leukemia K562 cells (American Tissue Culture Collection) overexpressing CDC25C, were grown in Growth Medium having the following composition: Iscove Dulbecco's Modified Eagle's Medium (“Iscove DMEM”, Mediatech/Cellgro, Cat. #10-013-CV), 10% Fetal Bovine Serum (“FBS”, SAFC Biosciences, Cat. #12106-500M), and 1% penicillin/streptomycin (“pen-strep”, Mediatech/Cellgro, Cat. #30-002-CI). The cells were plated in 96 well round bottom tissue culture plates (Fisher, Costar* Cell Culture plates, Cat. #07-200-95) at 100,000 cells per 50 μL of Growth Medium per well. Nocodazole (Sigma, Cat. # M1404) was added to the growth media to arrest the cells in the G2 or M phase, at 333 nM concentration. The cells were incubated with nocodazole for 18 hours at 37° C. prior to addition of tested compounds.
2. Treatment of Cells with the Tested Compounds
Solutions of tested compounds in DMSO at different concentrations were prepared using serial dilutions. Each compound was tested at 8 concentration points, 10 μM, 3.3 μM, 1.11 μM, 0.37 μM, 0.12 μM, 0.04 μM, 0.014 μM, 0.005 μM, duplicate replicates.
Two controls were performed: “DMSO alone” control in which nocodazole and DMSO were present but no compounds were added, and “nocodazole alone” control, in which only nocodazole was present, but neither DMSO nor compounds were added.
The solutions of compounds were prepared by diluting 10 mM compound 1:1 in DMSO (5 μL 10 mM compound and 5 μL DMSO), followed by 1:3 serial dilutions of compound in DMSO performed by diluting 3 μL of higher concentration compound solution serially into 6 μL DMSO to give 3-fold dilutions. Next, 3 μL of each compound solution at each concentration was transferred to 750 μL of Growth Medium. In “DMSO alone” control 3 μL of DMSO alone was added to 750 μL of Growth Medium.
After the diluted compounds were mixed well in the Growth Medium, 50 μL of each compound solution in DMSO/Growth Medium was transferred to each well of the 96-plate containing cells in 50 μL of Growth Medium/Nocodazole.
The cells and compounds were incubated for 120 minutes at 37° C., in an atmosphere containing 5% CO2.
3. Fixation and Permeabilization of the Cells
After the cells were incubated with compounds, the cells were spun down at 1,000 rpm for 5 minutes at 4° C. and supernatants were removed by flicking the plates. Cells were then washed with 200 μl of ice cold PBS, spun down again and supernatants removed. Cells were then fixed and permeabilized by addition of 100 μL/well of Fixation and Permeabilization Solution (1× buffer provided in BD Biosciences Cytofix/Cytoperm™ Fixation/Permeabilization kit, Cat. #554714) and incubation for 20 minutes at room temperature. The fixative was then removed by centrifugation (5 minutes at 2,000 rpm), and plates were flicked to remove the fixative and washed twice, each time with 200 μL/well BD Perm/Wash buffer (10× concentrate provided in BD Biosciences Cytofix/Cytoperm™ Fixation/Permeabilization kit, Cat. #554714, 1× buffer prepared by dilution in distilled H2O).
Cells were spun down at 1,000 rpm for 5 minutes at 4° C. Supernatants were removed by flicking the plates. A solution of a primary antibody specific for cdc25cp-Ser198 was prepared by diluting Rabbit cdc25c (Ser198) antibody (Cell Signaling, #9529L) 1:50 in a Fluorescence Activated Cell Sorting (“FACS”) Buffer (2% FBS in PBS). The cell pellets were resuspended in 50 μL of the primary antibody solution. 50 μL of FACS buffer was added to unstained controls. Staining was allowed to proceed overnight at room temperature.
The plates were then washed by addition of 200 μL of FACS Buffer to each well, were centrifuged and the supernatant was removed. […]

[3] abbreviates: ELISA, CHK2-derived peptide substrate, read-out: PLK1 IC50 (μM) biochemical assay.
Where [4] appears, read: read-out: IC50 in biochemical in vitro PLK1 ELISA assay (less than 10 μM).
[5] abbreviates: read-out: IC50 in biochemical ELISA assay (less than 0.01 μM).

Structures are written as SMILES.

T1 sequence (P53350 whole entry): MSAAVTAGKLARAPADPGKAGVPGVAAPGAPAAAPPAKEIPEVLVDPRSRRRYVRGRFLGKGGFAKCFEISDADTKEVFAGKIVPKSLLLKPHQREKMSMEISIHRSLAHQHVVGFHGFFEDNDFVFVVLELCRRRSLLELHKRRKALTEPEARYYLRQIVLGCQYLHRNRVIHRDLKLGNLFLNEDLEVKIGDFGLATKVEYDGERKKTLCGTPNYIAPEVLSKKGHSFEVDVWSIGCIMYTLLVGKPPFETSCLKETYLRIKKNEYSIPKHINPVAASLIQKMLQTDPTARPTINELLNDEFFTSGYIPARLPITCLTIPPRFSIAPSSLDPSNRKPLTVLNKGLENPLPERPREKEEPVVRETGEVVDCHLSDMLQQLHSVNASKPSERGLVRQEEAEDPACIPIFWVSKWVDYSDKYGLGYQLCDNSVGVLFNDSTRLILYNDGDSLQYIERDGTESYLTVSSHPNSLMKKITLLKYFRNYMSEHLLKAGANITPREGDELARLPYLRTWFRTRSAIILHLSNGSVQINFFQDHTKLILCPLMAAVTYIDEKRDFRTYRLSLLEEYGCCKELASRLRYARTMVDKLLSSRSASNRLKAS

With `Cc1cnc(Nc2cccc(N3CCN(C)CC3)c2)nc1Nc1ccc2c(n1)N(C1CCCC1)C(=O)CO2` [compound 116, 4-cyclopentyl-6-(5-methyl-2-(3-(4-methylpiperazin-1-yl)phenylamino)pyrimidin-4-ylamino)-2H-pyrido[3,2-b][1,4]oxazin-3(4H)-one], the values for the IC50 at PLK1 [1] (setting [3]), on PLK1 [1] (setting [4]) and on PLK1 [2] were 0.5 to 5 µM, below 10 µM and at least 10 µM, respectively.
Take `CN1CCN(c2cccc(Nc3ncc(F)c(Nc4ccc5c(n4)N(Cc4ccc(F)cc4)C(=O)CO5)n3)c2)CC1` [compound 132, 6-(5-fluoro-2-(3-(4-methylpiperazin-1-yl)phenylamino)pyrimidin-4-ylamino)-4-(4-fluorobenzyl)-2H-pyrido[3,2-b][1,4]oxazin-3(4H)-one]: the figures for the IC50 on PLK1 [1] (setting [3]), at PLK1 [1] (setting [4]) and against PLK1 [2] were 5 to 10 µM, below 10 µM and 0.5 to 5 µM, respectively.
The corresponding values for `CN1CCN(c2cccc(Nc3ncc(F)c(Nc4ccc5c(n4)N(CC4CCC4)C(=O)CO5)n3)c2)CC1` [compound 109, 4-(cyclobutylmethyl)-6-(5-fluoro-2-(3-(4-methylpiperazin-1-yl)phenylamino)pyrimidin-4-ylamino)-2H-pyrido[3,2-b][1,4]oxazin-3(4H)-one] are below 0.5 µM, below 10 µM and 0.5 to 5 µM.
With `CCCN1C(=O)COc2ccc(Nc3nc(Nc4ccc(N5CCN(C)CC5)c(C(F)(F)F)c4)ncc3F)nc21` [compound 135, 6-(5-fluoro-2-(4-(4-methylpiperazin-1-yl)-3-(trifluoromethyl)phenyl-amino)pyrimidin-4-ylamino)-4-propyl-2H-pyrido[3,2-b][1,4]oxazin-3(4H)-one], the IC50 on PLK1 [1] (setting [3]) and against PLK1 [2] was at least 10 µM each time.
Consider `CC(C)Oc1cc(Nc2ncc(F)c(Nc3ccc4c(n3)NCCO4)n2)cc(N2CCN(C)CC2)c1` [compound 26, N4-(3,4-dihydro-2H-pyrido[3,2-b][1,4]oxazin-6-yl)-5-fluoro-N2-(3-isopropoxy-5-(4-methylpiperazin-1-yl)phenyl)pyrimidine-2,4-diamine], for which the IC50 at PLK1 [1] (setting [3]) is below 0.5 µM; at PLK1 [1] (setting [5]) it was below 0.01 µM; at PLK1 [1] (setting [4]) it was below 10 µM; against PLK1 [2] it was below 0.5 µM.
As to `CCN1C(=O)COc2ccc(Nc3nc(Nc4ccc(N5CCN(C)CC5)nc4)ncc3C)nc21` [compound 101, 4-ethyl-6-(5-methyl-2-(6-(4-methylpiperazin-1-yl)pyridin-3-ylamino)pyrimidin-4-ylamino)-2H-pyrido[3,2-b][1,4]oxazin-3(4H)-one], the IC50 at PLK1 [1] (setting [3]) was below 0.5 µM; on PLK1 [1] (setting [4]) it was below 10 µM; at PLK1 [2], 0.5 to 5 µM.
Regarding `COc1ccc(CN2C(=O)COc3ccc(Nc4nc(Nc5cccc(N6CCN(C)CC6)c5)ncc4F)nc32)cc1` [compound 123, 6-(5-fluoro-2-(3-(4-methylpiperazin-1-yl)phenylamino)pyrimidin-4-ylamino)-4-(4-methoxybenzyl)-2H-pyrido[3,2-b][1,4]oxazin-3(4H)-one], the IC50 on PLK1 [1] (setting [3]) and against PLK1 [2] was at least 10 µM each time.
As to `CC(C)Oc1ccc(N2CCN(C)CC2)cc1Nc1ncc(F)c(Nc2ccc3c(n2)NCCO3)n1` [compound 23, N4-(3,4-dihydro-2H-pyrido[3,2-b][1,4]oxazin-6-yl)-5-fluoro-N2-(2-isopropoxy-5-(4-methylpiperazin-1-yl)phenyl)pyrimidine-2,4-diamine], the IC50 at PLK1 [1] (setting [3]) was below 0.5 µM; on PLK1 [1] (setting [4]) it was below 10 µM; on PLK1 [2] it was 0.5 to 5 µM.
In the case of `CCOc1ccc(N2CCN(C)CC2)cc1Nc1ncc(F)c(Nc2ccc3c(n2)NC(=O)CO3)n1` [compound 49, 6-(2-(2-ethoxy-5-(4-methylpiperazin-1-yl)phenylamino)-5-fluoro-pyrimidin-4-ylamino)-2H-pyrido[3,2-b][1,4]oxazin-3(4H)-one], the IC50 on PLK1 [1] (setting [3]) is below 0.5 µM; on PLK1 [1] (setting [5]), below 0.01 µM; at PLK1 [1] (setting [4]), below 10 µM; against PLK1 [2], below 0.5 µM.
`CC(C)Oc1ccc(N2CCN(C)CC2)cc1Nc1ncc(F)c(Nc2ccc3c(n2)NC(=O)CO3)n1` [compound 30, 6-(5-fluoro-2-(2-isopropoxy-5-(4-methylpiperazin-1-yl)phenylamino)pyrimidin-4-ylamino)-2H-pyrido[3,2-b][1,4]oxazin-3(4H)-one]: the IC50 on PLK1 [1] (setting [3]) is below 0.5 µM; on PLK1 [1] (setting [4]), below 10 µM; at PLK1 [2], below 0.5 µM.

By IC50 is commonly meant the concentration that gives 50% inhibition.
